Assay results: patent US10363234B2, “Antihypertensive agent” (WAKUNAGA PHARMACEUTICAL CO., LTD., priority 2015, dated 2019)

Experiments:
Assay type in all cases: in vivo, rat
[1] = system: Spontaneous Hypertensive Rats (SHR); experiment: Single oral administration of S1PC to spontaneous hypertensive rats, systolic blood pressure (Test Example 1); settings: SHR/Izm rats, single oral dose 6.5 mg/kg, 1.5 to 6 hours after the administration, t-test
Description: Effect of Administering S-1-Propenylcysteine (S1PC) to Spontaneous Hypertensive Rats (SHR)
(§1) One group of eight 8-week-old male SHR/Izm rats purchased from Japan SLC, Inc. (Hamamatsu-shi) was preliminarily bred for two weeks. During preliminary breeding, handling was performed on the rats, and the rats were bred in a constant environment (temperature; 23±1° C., humidity; 50±10%, light-dark cycle; 12 hours (light period; 7 to 19 o'clock)) and freely fed with an artificial diet (CE-2; CLEA Japan, Inc.) and sterilized tap water.
(§2) The administration was performed by forced oral administration using a disposable feeding needle and the fluid volume to be administered was 10 mL per 1 kg of SHR weight. As a sample to be administered, about 15 mg of S-1-propenylcysteine produced in Production Example 2 (a cis- and trans-mixture) was precisely weighed and dissolved in 15 mL of purified water. […]
(§3) Before the start of administration (0 hour) and after the administration (1.5, 3, 6, and 24 hours), the systolic blood pressure at the base of each tail was measured without anesthesia using a non-preheating, non-invasive blood pressure monitor (MK-2000ST, Muromachi Kikai Co., Ltd.). Note that the measurement was performed five times per individual, the upper and lower values were eliminated, and an average of the remaining measured values was defined as a systolic blood pressure value of the individual. […]

[2] = system: Spontaneous Hypertensive Rats (SHR); experiment: Single oral administration of S1PC and SAC to spontaneous hypertensive rats, systolic blood pressure (Test Example 2); settings: SHR/Izm rats, single oral dose 1 mg/kg, S1PC effect 3 hours after the administration, Bonferroni test
Description: Effect of Administering S-1-Propenylcysteine (S1PC) and S-Allylcysteine (SAC) to Spontaneous Hypertensive Rats (SHR)
as §1, with “three” for “two”
(§4) The administration was performed by forced oral administration using a disposable feeding needle and the fluid volume to be administered was 10 mL per 1 kg of SHR weight. […]
as §3, with “(3,” for “(1.5, 3,”

[3] = system: Spontaneous Hypertensive Rats (SHR); experiment: Repeated oral administration of S1PC to spontaneous hypertensive rats for 10 weeks, systolic blood pressure (Test Example 3); settings: SHR/Izm rats, 6.5 mg/kg oral once a day for 10 weeks, two-way ANOVA
Description: Effect of Repeated Oral Administration of S-1-Propenylcysteine (S1PC) on Spontaneous Hypertensive Rats (SHR)
as §1, with “ten” for “eight”
as §4
Before the repeated oral administration (0 hour), and every other week after the administration up to 10 weeks, the systolic blood pressure at the base of each tail was measured without anesthesia using a non-preheating, non-invasive blood pressure monitor (MK-2000ST, Muromachi Kikai Co., Ltd.). Note that the measurement was performed five times per individual, the upper and lower values were eliminated, and an average of the remaining measured values was defined as a systolic blood pressure value of the individual. […]

[4] = system: Normotensive Rats (WKY); experiment: Single oral administration of S1PC to normotensive rats, systolic blood pressure (Test Example 4); settings: WKY/Izm rats, single oral dose 6.5 mg/kg, measured 3, 6 and 24 hours
Description: Effect of Administering S-1-Propenylcysteine (S1PC) to Normotensive Rats (WKY)
as §1, with “four” for “eight”, “WKY/Izm” for “SHR/Izm”
as §2, with “WKY” for “SHR”
as §3, with “(3,” for “(1.5, 3,”

Compound	antihypertensive effect (systolic blood pressure) as compared with the control group [1]	antihypertensive effect (systolic blood pressure) as compared with the control group [2]	antihypertensive effect (systolic blood pressure) as compared with the control group [3]	antihypertensive effect (systolic blood pressure) on normotensive rats [4]
CC=CSCC(N)C(=O)O (centres unmarked) [S-1-propenylcysteine]	significant antihypertensive effect	significant antihypertensive effect	significant antihypertensive effect	no significant antihypertensive effect
C=CCSC[C@H](N)C(=O)O [SAC, S-allylcysteine, reference compound]		no significant antihypertensive effect		
